# Reference: PMC11650735, “Challenging Reported Frizzled-Targeting Compounds in Selective Assays Reveals Lack of Functional Inhibition and Claimed Profiles” (ACS Pharmacology & Translational Science, 2024)
# “Also recorded” adds a separate entry of the source. Where two headings read alike, the source gives them in different places.
# Experiments:
# [1] = test system: Wnt3a-stimulated Wnt pathway activation; assay: TopFlash assay in reporter wild-type HEK293T line, Wnt3a-stimulated; type: cell-based, human; conditions: for IC50: Homo sapiens, HEK-293T, Wnt3a
# [2] = test system: CHIR99021-stimulated Wnt pathway activation; assay: TopFlash assay in reporter wild-type HEK293T line, CHIR99021-stimulated; type: cell-based, human; conditions: for inhibition of CHIR99021-stimulated response compared with Wnt3a-stimulated, in words: wild-type reporter HEK293T, TopFlash
# [3] = test system: CHIR99021-induced Wnt pathway activation (FZD-independent); assay: TopFlash in ΔFZD1–10 HEK293T without FZD (pcDNA), CHIR99021-stimulated
# [4] = test system: individually reexpressed FZDs (1,2,4,5,7,8, and 10); assay: TopFlash in ΔFZD1–10 HEK293T, panel of individually reexpressed FZDs, Wnt3a-stimulated (collective statements)
# [5] = biological target: T1, FZD4 (Mus musculus, UniProt Q61088); assay: TopFlash in ΔFZD1–10 HEK293T with reexpressed FZD4, Wnt3a-stimulated; conditions: ΔFZD1–10 HEK293T + FZD4, Wnt3a, up to 50 μM
# T1 sequence (Q61088 37-537): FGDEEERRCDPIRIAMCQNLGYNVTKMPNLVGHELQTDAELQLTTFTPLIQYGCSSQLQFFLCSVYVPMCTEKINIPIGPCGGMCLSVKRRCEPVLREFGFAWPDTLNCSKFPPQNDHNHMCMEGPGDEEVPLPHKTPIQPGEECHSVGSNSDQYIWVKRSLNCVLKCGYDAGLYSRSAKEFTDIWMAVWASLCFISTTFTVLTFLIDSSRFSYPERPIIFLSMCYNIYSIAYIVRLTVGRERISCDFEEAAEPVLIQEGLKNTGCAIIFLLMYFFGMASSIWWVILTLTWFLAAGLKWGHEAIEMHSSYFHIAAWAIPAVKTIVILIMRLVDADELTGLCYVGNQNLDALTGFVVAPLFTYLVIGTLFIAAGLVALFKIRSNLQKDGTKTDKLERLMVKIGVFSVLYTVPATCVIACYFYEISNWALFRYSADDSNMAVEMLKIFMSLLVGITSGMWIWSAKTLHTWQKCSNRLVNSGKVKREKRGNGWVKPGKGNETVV
# [6] = test system: HEK293T cells; assay: Renilla luciferase (pRL-CMV) toxicity/general transcription readout in wild-type reporter HEK293T; conditions: for IC50: Homo sapiens, HEK-293T, read-out: IC50 (Renilla)
# [7] = test system: Wnt signaling in TopFlash-transfected 3T3 cells; design: method as in PMID 26504084; conditions: read-out: potency; cited from earlier work
# [8] = test system: ΔFZD1–10 HEK293T cells; conditions: for toxicity / general transcriptional inhibition by Renilla signal, in words: Renilla luciferase
# [9] = test system: FZD7; design: method as in PMID 37669317; conditions: cited from earlier work
# [10] = biological target: T2, FZD7 (Homo sapiens, UniProt O75084); assay: TopFlash in ΔFZD1–10 HEK293T with reexpressed FZD7, Wnt3a-stimulated; conditions: FZD7 reexpression, firefly TopFlash
# [11] = test system: Wnt3a/FZD7-mediated cytoplasmic β-catenin accumulation; assay: Western blot of FZD7-dependent cytoplasmic β-catenin accumulation in ΔFZD1–10 HEK293T; type: cell-based, human; conditions: 10 μM, FZD7-transfected ΔFZD1–10 HEK293T
# Method: In 24-well plates, a ΔFZD1–10 HEK293T cell line was reinfected with a baculovirus expressing FZD7 or a control baculovirus at a density of 100,000 cells/well. The new medium containing the 10 μM F7H-28 derivative and the indicated Wnt activators (500 ng/mL Wnt3a or 1 μM CHIR99021) was added and incubated until the next day. The medium was then removed, and 500 μL of 1× PBS was used twice for washing. After adding 30 μL of ice-cold 1× TBS supplemented with 4 mM EDTA and 1× protease inhibitor cocktail, the cells were lysed by scraping and passed through an insulin 30G needle 10 times. The samples were centrifuged at 18,000g and 4 °C for 10 min to remove debris. Western blot was performed on 15 μL of each supernatant and developed using antibodies against α-tubulin and β-catenin.
# [12] = biological target: T2, FZD7; assay: cell-based
# [13] = biological target: firefly luciferase (Photinus pyralis, UniProt P08659); assay: Compound added to prestimulated TopFlash cells immediately prior to lysis and measurement; conditions: compound added directly before cell lysis
# Sequence of firefly luciferase (P08659 whole entry): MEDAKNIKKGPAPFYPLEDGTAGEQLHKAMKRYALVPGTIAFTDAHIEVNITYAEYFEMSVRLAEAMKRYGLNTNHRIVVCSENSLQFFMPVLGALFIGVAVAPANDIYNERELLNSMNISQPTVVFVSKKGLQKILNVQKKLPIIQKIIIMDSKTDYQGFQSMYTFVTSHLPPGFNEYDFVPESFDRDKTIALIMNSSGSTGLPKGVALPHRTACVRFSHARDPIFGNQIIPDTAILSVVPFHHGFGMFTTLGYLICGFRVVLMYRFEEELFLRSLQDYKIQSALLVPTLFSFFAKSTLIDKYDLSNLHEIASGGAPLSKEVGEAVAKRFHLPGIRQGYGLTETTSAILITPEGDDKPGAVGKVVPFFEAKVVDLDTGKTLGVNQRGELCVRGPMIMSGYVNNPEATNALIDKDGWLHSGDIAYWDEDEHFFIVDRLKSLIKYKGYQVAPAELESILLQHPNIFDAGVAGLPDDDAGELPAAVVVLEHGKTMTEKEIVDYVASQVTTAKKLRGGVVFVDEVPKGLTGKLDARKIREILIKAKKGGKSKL
# [14] = biological target: T2, FZD7; assay: NanoLuc-substituted TopFlash reporter in ΔFZD1–10 HEK293T cotransfected with FZD7, Wnt3a
# [15] = test system: FZD7; design: method as in PMID 29207657; conditions: claimed FZD7 inhibition; cited from earlier work
# [16] = test system: HEK293T cells
# [17] = test system: mouse FZD8; design: method as in PMID 32049522; conditions: HEK293T FZD1,2,7 knockout + mouse FZD8; cited from earlier work
# [18] = read-out: IC50 / potency, ΔFZD1–10 HEK293T without FZD, CHIR99021
smiles,measurement,setting,value
O=C(Nc1ccc([N+](=O)[O-])cc1Cl)c1cc(Cl)ccc1O [niclosamide],IC50,[1]; wild-type HEK293T reporter line,0.1 µM
same,IC50,"[2]; Homo sapiens, HEK-293T, wild-type HEK293T reporter line",0.1 µM
same,IC50,[3]; CHIR99021 in cells deprived of any FZD protein,0.1 µM
same,IC50,"[4]; all individually reexpressed FZDs, Wnt3a",0.1 µM
O=C(Nc1cc(O)cc(-c2cccs2)c1)Nc1ccc2ccccc2c1 [FzM1],"effect on FZD4-dependent Wnt3a signaling, in words",[5],no statistically discernible effect
same,"activity against Wnt signaling, in words","[1]; wild-type HEK293T, up to 50 μM",no detectable activity; also recorded: no statistically discernible effect
same,"activity against Wnt signaling, in words","[4]; any of the FZDs in ΔFZD1–10 HEK293T, Wnt3a, up to 50 μM",no detectable activity; also recorded: no statistically discernible effect
COc1ccc(C(=O)Nc2ccccc2C(=O)NC(C(=O)NNC(=O)COc2ccccc2)C(C)C)cc1 (centres unmarked) [3235-0367],IC50,"[1]; wild-type reporter HEK293T, TopFlash",~8 µM
same,IC50,[6],> 50 µM
same,"inhibition of CHIR99021-stimulated response compared with Wnt3a-stimulated, in words",[2],overlapping inhibition curve
same,IC50,[3]; [18],~20 µM
same,IC50,[7],7.1 µM
same,IC50,"[8]; read-out: IC50 (Renilla), Renilla luciferase signal",> 50 µM
same,"selectivity among FZDs, in words",[4]; individual FZDs including FZD8,no significant selectivity
O=C(CSc1ccc(NC(=O)c2ccc(F)cc2)cc1)Nc1nc(-c2ccccc2)cs1 [F7H-28],IC50,[9],0.04 µM
same,"potency compared with CHIR99021-stimulated cells, in words",[10],same potency
same,"effect on cytoplasmic β-catenin signal (Western blot), in words",[11],does not reduce this signal
same,IC50,[6],> 2 µM
same,IC50,[12],> 50 µM
same,"direct effect on firefly luciferase, in words",[13],inhibits the firefly luciferase enzymatic activity
same,"effect on NanoLuc Wnt reporter, in words",[14],does not report significant changes
O=C(/C=C/c1ccc2c(c1)OCO2)Nc1ccc(-n2cnc3ccccc32)cc1 [SRI35959],"toxicity by effect on Renilla luciferase, in words","[6]; wild-type reporter HEK293T, Renilla luciferase",some toxicity
same,"inhibition of CHIR99021-stimulated response compared with Wnt3a-stimulated, in words",[2],slightly (but significantly) better
same,IC50,[3]; [18],10 µM
same,"toxicity / general transcriptional inhibition by Renilla signal, in words",[8],some toxicity
same,IC50,[15],~3 µM
"CSCC[C@H](NC(=O)[C@@H](NC(=O)[C@H](Cc1c[nH]cn1)NC(=O)[C@H](CS)NC(=O)[C@H](Cc1c[nH]c2ccccc12)NC(=O)[C@H](Cc1ccccc1)NC(=O)[C@H](CCC(=O)O)NC(=O)[C@H](CC(C)C)NC(=O)[C@H](CC(=O)O)NC(=O)[C@H](CC(=O)O)NC(=O)[C@H](CO)NC(=O)[C@@H]1CCCN1C(=O)[C@@H](N)CC(C)C)C(C)C)C(=O)N[C@@H](Cc1ccc(O)cc1)C(=O)O [Fz7–21, LPSDDLEFWCHVMY]","toxicity / general transcriptional inhibition by Renilla signal, in words",[8],no unspecific toxicity
NC(=O)N1c2ccccc2C=Cc2ccccc21 [carbamazepine],"toxicity by effect on Renilla luciferase, in words",[16],some toxicity
same,"inhibition of Wnt3a-induced signal, in words",[17],partially inhibited
same,"inhibition of CHIR99021-stimulated response compared with Wnt3a-stimulated, in words",[2],slightly (but significantly) better
same,IC50,[3]; [18],~50 µM
same,"toxicity / general transcriptional inhibition by Renilla signal, in words",[8],some toxicity
